In experiment [1] the test system is HIV-1IIIB. Nature of the experiment: HIV-1 antiviral assay in CEM-SS cells (MTS readout).
Experiment [2] concerns Interferon-γ (IFN-γ). Nature of the experiment: Th1/Th2 cytokine profiling assay: IFN-γ. Format: cell-based, mouse. Particulars: 10 micrograms per ml; Ovalbumin-restimulated murine spleen cells; 72 hours.
Procedure: (§1) On day 50, spleens of the mice were harvested (3 weeks after last boost with Ovalbumin). Cells were cultured (2×10^5/well in triplicate) and incubated with culture medium or test peptides—10 micrograms per ml—for 30 min. […] This kit can be used to measure Interleukin-2 (IL-2), Interleukin-4 (IL-4), Interleukin-5 (IL-5), Interferon-γ (IFN-γ), and Tumor Necrosis Factor-a (TNF-a) protein levels in a single sample. The kit performance has been optimized for analysis of physiologically relevant concentrations (μg/ml levels) of specific cytokine proteins in tissue culture supernatants and serum samples.
For experiment [3], the system named is Primary Human endothelial cells (HUVEC). Nature of the experiment: Endothelial cell migration assay. Format: cell-based. Particulars: 10 micrograms per ml, 22 hours. The protocol:
Thereafter, designated concentration of testing peptides was added in duplicate wells.

Experiment [4] concerns Interleukin-4 (IL-4). The experiment in a line: Th1/Th2 cytokine profiling assay: IL-4. Format: cell-based, mouse. Particulars: 10 micrograms per ml; Ovalbumin-restimulated murine spleen cells; 72 hours.
Procedure: as §1
The subject of experiment [5] is Interleukin-2 (IL-2). The experiment in a line: Th1/Th2 cytokine profiling assay: IL-2. Format: cell-based, mouse. The conditions noted are these: 10 micrograms per ml; Ovalbumin-restimulated murine spleen cells; 72 hours.
Procedure: as §1
Experiment [6] deals with Tumor Necrosis Factor-a (TNF-a). Nature of the experiment: Th1/Th2 cytokine profiling assay: TNF-alpha. Format: cell-based, mouse. Particulars: 10 micrograms per ml; Ovalbumin-restimulated murine spleen cells; 72 hours.
Procedure: as §1
Experiment [7] relates to HUVEC. The experiment in a line: Endothelial tube formation assay. Format: cell-based, human. The conditions noted are these: 10 micrograms per ml, 20 hours. From the text: Positive control was vehicle only.
Experiment [8] has as its system Interleukin-5 (IL-5). Nature of the experiment: Th1/Th2 cytokine profiling assay: IL-5. Format: cell-based, mouse. Particulars: 10 micrograms per ml; Ovalbumin-restimulated murine spleen cells; 72 hours.
Procedure: as §1
For experiment [9], the system named is hepatitis B virus (HBV) ayw strain. Nature of the experiment: HBV assay in HepG2-2.2.15 cells (secreted HBV DNA, TaqMan PCR). Particulars: 10 micrograms per ml, six days, combination 0.95 mole peptide 1 and 1.05 mole peptide 2. Format: cell-based. From the text: HepG2-2.2.15 is a stable cell line containing the hepatitis B virus (HBV) ayw strain genome (ATCC Cat. No. CRL-11997). Antiviral compounds blocking any late step of viral replication such as transcription, translation, pregenome encapsidation, reverse transcription, particle assembly and release can be identified and characterized using this cell line. In this assay, an active compound will reduce the production of secreted HBV from cells, measured by utilizing real time quantitative PCR (TaqMan) assay to directly and accurately measure HBV DNA copies.
HepG2-2.2.15 cells were plated in 96-well microtiter plates. After 16-24 hours the confluent monolayer of HepG2-2.2.15 cells was washed and the medium was replaced with complete medium containing test peptides—10 micrograms per ml—in duplicate. […] Six days following the initial administration of the peptides, the cell culture supernatants was collected, treated with pronase and DNAse and then used in a real-time quantitative TaqMan PCR assay. The PCR-amplified HBV DNA was detected in real-time by monitoring increases in fluorescence signals that result from the exonucleolytic degradation of a quenched fluorescence probe molecule that hybridizes to the amplified HBV DNA. […] Antiviral activity was calculated from the reduction in HBV DNA levels (% virus control). […]
Background: Quantitative PCR measures a nucleic acid by following its amplification.

Experiment [10] concerns HCMV strain AD169. The experiment in a line: HCMV plaque formation assay in MRC-5 cells. Particulars: 10 micrograms per ml, 7-10 days.

Results on 4 compounds are retold here after patent US20100204150A1, “USE OF A PEPTIDE AS A THERAPEUTIC AGENT” (priority 2007, published 2010).

Where no end group is shown, it is not given here. [ ]: non-standard residue; d: D form.

Turning to `Cc1cn([C@H]2C[C@H](N=[N+]=[N-])[C@@H](CO)O2)c(=O)[nH]c1=O` [AZT], the “antiviral activity of positive control compounds (HIV-1)” value in experiment [1] is recorded as “expected levels of antiviral activity”.
For `CC(C)(C)NC(=O)[C@@H]1CN(Cc2cccnc2)CCN1C[C@@H](O)C[C@@H](Cc1ccccc1)C(=O)N[C@H]1c2ccccc2C[C@H]1O` [indinavir], the “antiviral activity of positive control compounds (HIV-1)” value in experiment [1] was “expected levels of antiviral activity”.
Take “Ac-Arg-Phe-Met-Trp-Met-Arg-NH2 (Ac-RFMWMR-NH2) [Peptide 2]”: the “increase of the production of IFN-γ” value in [2] is given as 118.6%. For the same compound, the “increase of the migration of endothelial cells” value in experiment [3] is 15%. In addition, the “increase of the production of IL-4” value in experiment [4] stood at 56.2%. For the same compound, the “increase of the production of IL-2” value in [5] stood at 56.5%. The “change of the production of TNF-alpha” value in experiment [6] is “did not significantly change”. In addition, the “increase of the tube formation of human endothelial cells” value in [7] is recorded as 4%. In [8], the “change of the production of IL-5” value is reported as “did not significantly change”. In addition, the “inhibition of HBV replication as compared to the virus control infection” value in [9] amounted to 26.3%. The “inhibition of HCMV plaque formation as compared to the virus control experiment” value in [10] was found to be 2.9%.
In the case of HPFHL[dL]VY-OH [Peptide 1], in experiment [2], the “decrease of the production of IFN-γ” value stood at 43.3%. Also, the “inhibition of the migration of human endothelial cells” value in experiment [3] stood at 26%. Moreover, in [4], the “change of the production of IL-4” value is recorded as “did not significantly change”. The “increase of the production of IL-2” value in [5] is given as 82.1%. For the same compound, the “change of the production of TNF-alpha” value in experiment [6] is given as “did not significantly change”. The “increase of the tube formation of human endothelial cells” value in [7] was 2%. Moreover, the “decrease of the production of IL-5” value in experiment [8] is 34.5%. For the same compound, the “inhibition of HBV replication as compared to the virus control infection” value in experiment [9] is on record as 24.3%. Further, the “inhibition of HCMV plaque formation as compared to the virus control experiment” value in experiment [10] is listed as “did not inhibit”.
